{"source": "paper PMC12090182", "about": "“Repurposing of the RIPK1-Selective Benzo[1,4]oxazepin-4-one Scaffold for the Development of a Type III LIMK1/2 Inhibitor” (ACS Chemical Biology, 2025)", "key": {"AAK1": {"biological_target": "AAK1 (Homo sapiens, UniProt Q2M2I8)", "assay_type": "cell-based", "conditions": "HEK-293T; 1 μM inhibitor, HEK293T cells", "description": "(§1) For plate preparation, a transfection mix was prepared in white 384-well small-volume plates (Greiner, cat. no. 784075) by preplating 3 μL of 20 μL/mL FuGene HD (Promega, cat. no. E2311), diluted in an Opti-MEM medium (Gibco, cat. no. 11058-021). One μL of DNA from both DNA vector source plates of the K192 kit was added using an Echo 550 acoustic dispenser (Beckman Coulter). The mix was incubated for 30 min, and 6 μL of HEK293T cells in an Opti-MEM medium was added. The proteins were allowed to express for 20 h. After expression, Tracer K10 was added using the concentrations recommended in the K192 technical manual and a 1 μM inhibitor was added to every second well. […] Five μL of substrate solution was added to every well, and filtered luminescence was measured on a PHERAstar plate reader (BMG Labtech) equipped with a luminescence filter pair (450 nm BP filter (donor) and a 610 nm LP filter (acceptor)). For every kinase, occupancy was calculated and plotted using GraphPad Prism 10 (Table S5)."}, "ABL2": {"biological_target": "ABL2 (Homo sapiens, UniProt P42684)", "assay_type": "cell-based", "conditions": "HEK-293T; 1 μM inhibitor, HEK293T cells", "description": "as §1"}, "CDK9": {"biological_target": "CDK9 (Homo sapiens, UniProt P50750)", "sequence (P50750 whole entry)": "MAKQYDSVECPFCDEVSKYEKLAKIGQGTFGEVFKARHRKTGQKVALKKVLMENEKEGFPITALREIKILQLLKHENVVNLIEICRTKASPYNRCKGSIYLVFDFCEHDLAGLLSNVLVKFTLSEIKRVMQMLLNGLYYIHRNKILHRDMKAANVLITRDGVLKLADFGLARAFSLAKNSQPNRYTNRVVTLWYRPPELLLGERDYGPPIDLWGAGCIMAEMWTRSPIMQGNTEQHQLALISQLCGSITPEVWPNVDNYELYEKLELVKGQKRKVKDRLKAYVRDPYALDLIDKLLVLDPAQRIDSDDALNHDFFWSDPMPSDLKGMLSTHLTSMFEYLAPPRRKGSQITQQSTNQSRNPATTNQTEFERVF", "assay_type": "cell-based", "conditions": "HEK-293T; 1 μM inhibitor, HEK293T cells", "description": "as §1"}, "CDKL5": {"biological_target": "CDKL5 (Homo sapiens, UniProt O76039)", "sequence (O76039 whole entry)": "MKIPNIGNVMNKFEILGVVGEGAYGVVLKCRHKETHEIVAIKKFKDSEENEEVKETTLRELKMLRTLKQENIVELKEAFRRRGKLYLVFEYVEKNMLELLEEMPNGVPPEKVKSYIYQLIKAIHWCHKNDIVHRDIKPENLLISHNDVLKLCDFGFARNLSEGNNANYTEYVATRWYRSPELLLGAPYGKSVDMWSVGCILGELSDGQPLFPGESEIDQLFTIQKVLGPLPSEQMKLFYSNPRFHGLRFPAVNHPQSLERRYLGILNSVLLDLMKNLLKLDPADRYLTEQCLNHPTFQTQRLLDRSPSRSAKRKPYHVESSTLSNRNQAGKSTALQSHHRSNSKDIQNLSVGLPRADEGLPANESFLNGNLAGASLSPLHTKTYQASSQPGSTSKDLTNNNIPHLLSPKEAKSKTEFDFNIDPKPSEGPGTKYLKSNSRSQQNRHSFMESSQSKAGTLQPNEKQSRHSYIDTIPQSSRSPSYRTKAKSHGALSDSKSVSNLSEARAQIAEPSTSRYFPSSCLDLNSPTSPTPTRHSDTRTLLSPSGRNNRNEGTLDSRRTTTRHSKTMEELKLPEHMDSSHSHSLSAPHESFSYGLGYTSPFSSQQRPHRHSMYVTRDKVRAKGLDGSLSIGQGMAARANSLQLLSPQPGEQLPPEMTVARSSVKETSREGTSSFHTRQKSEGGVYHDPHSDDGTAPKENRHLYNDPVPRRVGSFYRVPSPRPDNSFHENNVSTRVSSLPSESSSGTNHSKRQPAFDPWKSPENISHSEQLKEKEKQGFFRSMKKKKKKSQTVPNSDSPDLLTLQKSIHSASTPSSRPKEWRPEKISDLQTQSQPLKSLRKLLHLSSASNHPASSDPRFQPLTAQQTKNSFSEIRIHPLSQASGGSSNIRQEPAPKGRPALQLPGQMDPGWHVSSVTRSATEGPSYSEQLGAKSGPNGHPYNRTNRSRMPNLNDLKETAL", "assay_type": "cell-based", "conditions": "HEK-293T; 1 μM inhibitor, HEK293T cells", "description": "as §1"}, "FGFR2": {"biological_target": "FGFR2 (Homo sapiens, UniProt P21802)", "assay_type": "cell-based", "conditions": "HEK-293T; 1 μM inhibitor, HEK293T cells", "description": "as §1"}, "LRRK2": {"biological_target": "LRRK2 (Homo sapiens, UniProt Q5S007)", "assay_type": "cell-based", "conditions": "HEK-293T; 1 μM inhibitor, HEK293T cells", "description": "as §1"}, "MAP4K2": {"biological_target": "MAP4K2 (Homo sapiens, UniProt Q12851)", "assay_type": "cell-based", "conditions": "HEK-293T; 1 μM inhibitor, HEK293T cells", "description": "as §1"}, "MAP4K3": {"biological_target": "MAP4K3 (Homo sapiens, UniProt Q8IVH8)", "assay_type": "cell-based", "conditions": "HEK-293T; 1 μM inhibitor, HEK293T cells", "description": "as §1"}, "PTK2B": {"biological_target": "PTK2B (Homo sapiens, UniProt Q14289)", "assay_type": "cell-based", "conditions": "HEK-293T; 1 μM inhibitor, HEK293T cells", "description": "as §1"}, "SIK1": {"biological_target": "SIK1 (Homo sapiens, UniProt P57059)", "assay_type": "cell-based", "conditions": "HEK-293T; 1 μM inhibitor, HEK293T cells", "description": "as §1"}, "SRMS [1]": {"biological_target": "T1, SRMS (Homo sapiens, UniProt Q9H3Y6)", "T1 sequence (Q9H3Y6 whole entry)": "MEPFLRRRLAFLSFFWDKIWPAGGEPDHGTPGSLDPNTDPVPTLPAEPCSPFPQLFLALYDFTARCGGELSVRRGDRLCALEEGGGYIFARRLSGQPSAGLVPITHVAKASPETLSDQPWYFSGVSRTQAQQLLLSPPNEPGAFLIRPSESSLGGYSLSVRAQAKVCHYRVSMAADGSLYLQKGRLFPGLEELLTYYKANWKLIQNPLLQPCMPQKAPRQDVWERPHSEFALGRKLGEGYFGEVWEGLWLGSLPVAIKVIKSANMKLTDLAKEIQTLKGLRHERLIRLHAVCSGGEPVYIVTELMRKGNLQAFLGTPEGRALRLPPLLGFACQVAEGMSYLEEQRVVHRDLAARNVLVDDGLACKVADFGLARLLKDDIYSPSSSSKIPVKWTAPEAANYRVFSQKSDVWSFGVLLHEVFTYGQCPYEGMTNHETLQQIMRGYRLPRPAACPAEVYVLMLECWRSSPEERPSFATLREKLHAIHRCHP", "assay_type": "cell-based", "conditions": "HEK-293T; 1 μM inhibitor, HEK293T cells", "description": "as §1"}, "STK10": {"biological_target": "STK10 (Homo sapiens, UniProt O94804)", "assay_type": "cell-based", "conditions": "HEK-293T; 1 μM inhibitor, HEK293T cells", "description": "as §1"}, "TEC": {"biological_target": "TEC (Homo sapiens, UniProt P42680)", "sequence (P42680 whole entry)": "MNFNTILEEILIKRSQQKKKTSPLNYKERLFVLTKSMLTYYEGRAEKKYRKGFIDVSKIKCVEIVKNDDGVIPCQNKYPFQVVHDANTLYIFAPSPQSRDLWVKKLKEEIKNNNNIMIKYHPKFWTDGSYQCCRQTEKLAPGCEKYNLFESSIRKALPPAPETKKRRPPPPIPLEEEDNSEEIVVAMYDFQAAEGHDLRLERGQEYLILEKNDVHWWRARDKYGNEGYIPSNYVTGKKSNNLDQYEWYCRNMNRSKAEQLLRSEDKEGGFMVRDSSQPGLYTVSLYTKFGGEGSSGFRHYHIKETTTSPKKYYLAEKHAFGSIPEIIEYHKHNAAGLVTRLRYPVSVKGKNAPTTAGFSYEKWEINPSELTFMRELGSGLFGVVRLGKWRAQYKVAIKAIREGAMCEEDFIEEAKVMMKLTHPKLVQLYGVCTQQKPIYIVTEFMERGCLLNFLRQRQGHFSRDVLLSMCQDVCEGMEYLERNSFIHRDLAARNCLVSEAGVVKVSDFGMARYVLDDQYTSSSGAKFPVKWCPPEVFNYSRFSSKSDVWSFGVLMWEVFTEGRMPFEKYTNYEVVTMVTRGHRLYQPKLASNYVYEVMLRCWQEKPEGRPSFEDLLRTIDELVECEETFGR", "assay_type": "cell-based", "conditions": "HEK-293T; 1 μM inhibitor, HEK293T cells", "description": "as §1"}, "TEK": {"biological_target": "TEK (Homo sapiens, UniProt Q02763)", "assay_type": "cell-based", "conditions": "HEK-293T; 1 μM inhibitor, HEK293T cells", "description": "as §1"}, "TNK1": {"biological_target": "TNK1 (Homo sapiens, UniProt Q13470)", "assay_type": "cell-based", "conditions": "HEK-293T; 1 μM inhibitor, HEK293T cells", "description": "as §1"}, "TXK": {"biological_target": "TXK (Homo sapiens, UniProt P42681)", "assay_type": "cell-based", "conditions": "HEK-293T; 1 μM inhibitor, HEK293T cells", "description": "as §1"}, "[2]": {"assay": "Pharmacokinetic screening in mice (IV and PO, cassette dosing)", "assay_type": "in vivo, mouse", "conditions": "plasma", "description": "Test compounds were administered intravenously (0.1 mg mL^–1/kg) or orally (1 mg/5 mL/kg) by cassette dosing to nonfasted mice. After administration, blood samples were collected and centrifuged to obtain the plasma fraction. The plasma samples were deproteinized followed by centrifugation. The compound concentrations in the supernatant were analyzed by LC/MS/MS."}, "MET(M1250T)": {"biological_target": "MET(M1250T) (Homo sapiens, UniProt P08581, M1250T)", "assay": "biochemical", "assay_type": "binding", "conditions": "1000 nM, read-out: Percent Control"}, "BRSK1": {"biological_target": "BRSK1 (Homo sapiens, UniProt Q8TDC3)", "assay": "scanMAX KINOMEscan (Eurofins)", "assay_type": "binding", "conditions": "1000 nM, read-out: Percent Control", "from_the_text": "(§2) Supplement cb5c00097_si_002.xlsx, sheet \"Table S6 (Eurofins Selectivity)\" | column: Percent Control"}, "CDK4-cyclinD3": {"biological_target": "CDK4-cyclinD3 (Homo sapiens, UniProt P11802)", "sequence (P30281 whole entry)": "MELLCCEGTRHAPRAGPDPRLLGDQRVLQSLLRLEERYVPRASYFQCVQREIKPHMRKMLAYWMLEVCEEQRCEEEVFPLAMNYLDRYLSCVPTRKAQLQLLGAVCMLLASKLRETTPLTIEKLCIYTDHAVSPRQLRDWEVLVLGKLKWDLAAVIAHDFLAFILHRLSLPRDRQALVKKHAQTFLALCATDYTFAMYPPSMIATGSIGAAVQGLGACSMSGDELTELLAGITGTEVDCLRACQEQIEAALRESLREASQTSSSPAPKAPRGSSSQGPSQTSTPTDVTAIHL", "sequence (P11802 whole entry)": "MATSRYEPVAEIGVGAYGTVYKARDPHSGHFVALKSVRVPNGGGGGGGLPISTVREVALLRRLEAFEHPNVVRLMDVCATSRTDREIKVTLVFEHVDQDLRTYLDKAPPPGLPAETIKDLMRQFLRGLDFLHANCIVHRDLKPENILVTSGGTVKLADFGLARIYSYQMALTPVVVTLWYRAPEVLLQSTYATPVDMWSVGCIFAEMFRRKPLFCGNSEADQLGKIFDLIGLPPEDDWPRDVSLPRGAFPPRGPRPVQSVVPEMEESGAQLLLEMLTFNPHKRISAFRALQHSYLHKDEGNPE", "assay": "scanMAX KINOMEscan (Eurofins)", "assay_type": "binding", "conditions": "1000 nM, read-out: Percent Control", "from_the_text": "as §2"}, "EPHA6": {"biological_target": "EPHA6 (Homo sapiens, UniProt Q9UF33)", "assay": "scanMAX KINOMEscan (Eurofins)", "assay_type": "binding", "conditions": "1000 nM, read-out: Percent Control", "from_the_text": "as §2"}, "GRK3": {"biological_target": "GRK3 (Homo sapiens, UniProt P35626)", "assay": "scanMAX KINOMEscan (Eurofins)", "assay_type": "binding", "conditions": "1000 nM, read-out: Percent Control", "from_the_text": "as §2"}, "GSK3B": {"biological_target": "GSK3B (Homo sapiens, UniProt P49841)", "sequence (P49841 whole entry)": "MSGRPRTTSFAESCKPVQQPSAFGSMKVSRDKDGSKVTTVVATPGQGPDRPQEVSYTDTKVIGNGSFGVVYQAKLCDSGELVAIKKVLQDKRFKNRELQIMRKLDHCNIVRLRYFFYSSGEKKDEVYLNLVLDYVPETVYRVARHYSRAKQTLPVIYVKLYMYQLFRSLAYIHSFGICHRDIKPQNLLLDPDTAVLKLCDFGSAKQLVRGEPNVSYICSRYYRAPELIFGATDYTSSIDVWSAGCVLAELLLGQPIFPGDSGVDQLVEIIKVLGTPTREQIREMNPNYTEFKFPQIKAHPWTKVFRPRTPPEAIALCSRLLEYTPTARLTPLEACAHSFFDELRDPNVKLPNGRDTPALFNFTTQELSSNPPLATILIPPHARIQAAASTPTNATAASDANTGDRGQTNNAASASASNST", "assay": "scanMAX KINOMEscan (Eurofins)", "assay_type": "binding", "conditions": "read-out: Percent Control", "from_the_text": "as §2"}, "KIT-autoinhibited": {"biological_target": "KIT-autoinhibited (Homo sapiens, UniProt P10721)", "assay": "scanMAX KINOMEscan (Eurofins)", "assay_type": "binding", "conditions": "1000 nM, read-out: Percent Control", "from_the_text": "as §2"}, "MAPKAPK2": {"biological_target": "MAPKAPK2 (Homo sapiens, UniProt P49137)", "sequence (P49137 whole entry)": "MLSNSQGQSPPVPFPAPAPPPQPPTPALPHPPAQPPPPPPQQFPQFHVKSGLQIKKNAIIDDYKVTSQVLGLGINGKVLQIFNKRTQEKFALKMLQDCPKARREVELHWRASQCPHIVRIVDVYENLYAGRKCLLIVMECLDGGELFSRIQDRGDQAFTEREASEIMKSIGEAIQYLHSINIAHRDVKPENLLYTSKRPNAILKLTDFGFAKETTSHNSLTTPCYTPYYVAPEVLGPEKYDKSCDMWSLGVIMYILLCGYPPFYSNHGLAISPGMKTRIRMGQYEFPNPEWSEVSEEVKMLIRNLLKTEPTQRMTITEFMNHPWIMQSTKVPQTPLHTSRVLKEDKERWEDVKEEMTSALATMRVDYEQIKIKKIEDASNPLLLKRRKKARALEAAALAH", "assay": "scanMAX KINOMEscan (Eurofins)", "assay_type": "binding", "conditions": "1000 nM, read-out: Percent Control", "from_the_text": "as §2"}, "MEK5": {"biological_target": "MEK5 (Homo sapiens, UniProt Q13163)", "assay": "scanMAX KINOMEscan (Eurofins)", "assay_type": "binding", "conditions": "1000 nM, read-out: Percent Control", "from_the_text": "as §2"}, "MST2": {"biological_target": "MST2 (Homo sapiens, UniProt Q13188)", "assay": "scanMAX KINOMEscan (Eurofins)", "assay_type": "binding", "conditions": "1000 nM, read-out: Percent Control", "from_the_text": "as §2"}, "SRMS [3]": {"biological_target": "T1, SRMS", "assay": "scanMAX KINOMEscan (Eurofins)", "assay_type": "binding", "conditions": "compound concentration 100 nM; Entrez SRMS; read-out: Percent Control", "from_the_text": "as §2"}, "RET(V804M)": {"biological_target": "RET(V804M) (Homo sapiens, UniProt P07949, V804M)", "sequence (P07949 29-1114 V804M)": "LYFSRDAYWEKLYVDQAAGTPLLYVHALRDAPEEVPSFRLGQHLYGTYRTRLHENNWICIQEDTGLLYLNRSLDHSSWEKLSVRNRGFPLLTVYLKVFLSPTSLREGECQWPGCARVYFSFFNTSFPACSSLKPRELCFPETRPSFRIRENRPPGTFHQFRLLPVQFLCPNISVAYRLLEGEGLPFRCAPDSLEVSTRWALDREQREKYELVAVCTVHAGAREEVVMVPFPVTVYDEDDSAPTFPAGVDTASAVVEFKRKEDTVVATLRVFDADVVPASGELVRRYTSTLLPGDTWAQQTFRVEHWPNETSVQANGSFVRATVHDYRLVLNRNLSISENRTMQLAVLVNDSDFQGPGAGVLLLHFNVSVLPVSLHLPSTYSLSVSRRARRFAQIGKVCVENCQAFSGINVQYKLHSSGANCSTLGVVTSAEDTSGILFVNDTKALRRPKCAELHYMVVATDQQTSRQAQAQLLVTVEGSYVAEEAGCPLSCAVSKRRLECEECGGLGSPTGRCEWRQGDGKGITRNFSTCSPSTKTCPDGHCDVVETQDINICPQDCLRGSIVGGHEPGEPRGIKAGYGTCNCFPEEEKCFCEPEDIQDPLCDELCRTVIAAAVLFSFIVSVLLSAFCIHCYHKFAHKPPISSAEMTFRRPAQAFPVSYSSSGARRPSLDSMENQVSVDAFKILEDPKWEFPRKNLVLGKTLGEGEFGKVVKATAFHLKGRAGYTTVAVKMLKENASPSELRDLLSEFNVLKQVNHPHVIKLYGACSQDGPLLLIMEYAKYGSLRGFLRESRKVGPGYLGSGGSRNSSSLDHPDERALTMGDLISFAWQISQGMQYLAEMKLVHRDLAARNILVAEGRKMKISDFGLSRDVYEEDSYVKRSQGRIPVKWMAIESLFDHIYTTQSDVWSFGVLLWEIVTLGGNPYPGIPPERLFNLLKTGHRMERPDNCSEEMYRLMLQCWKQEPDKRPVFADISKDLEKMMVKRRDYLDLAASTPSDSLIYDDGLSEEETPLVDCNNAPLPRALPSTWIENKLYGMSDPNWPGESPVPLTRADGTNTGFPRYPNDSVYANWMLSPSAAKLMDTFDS", "assay": "biochemical", "assay_type": "binding", "conditions": "1000 nM, read-out: Percent Control"}, "FLT3(K663Q)": {"biological_target": "FLT3(K663Q) (Homo sapiens, UniProt P36888, K663Q)", "assay": "biochemical", "assay_type": "binding", "conditions": "1000 nM, read-out: Percent Control"}, "[4]": {"biological_target": "ABL1(F317I)-phosphorylated (Homo sapiens, UniProt P00519, F317I)", "assay": "biochemical", "assay_type": "binding", "conditions": "compound concentration 100 nM; Entrez ABL1; read-out: Percent Control"}}, "note": "Where two headings read alike, the source gives them in different places."}
{"molecule": "CN1C(=O)[C@@H](N2CCc3c(nn(Cc4ccccc4)c3C(N)=O)C2=O)COc2cc(Cl)ccc21", "note": "[Compound 10, (S)-2-benzyl-6-(8-chloro-5-methyl-4-oxo-2,3,4,5-tetrahydrobenzo[b][1,4]oxazepin-3-yl)-7-oxo-4,5,6,7-tetrahydro-2H-pyrazolo[3,4-c]pyridine-3-carboxamide]", "values": [{"measurement": "receptor occupancy at 1 µM", "setting": "AAK1", "value": 0.814, "unit": "%"}, {"measurement": "receptor occupancy at 1 µM", "setting": "ABL2", "value": 6.33, "unit": "%"}, {"measurement": "receptor occupancy at 1 µM", "setting": "CDK9", "value": -4.57, "unit": "%"}, {"measurement": "receptor occupancy at 1 µM", "setting": "CDKL5", "value": 1.05, "unit": "%"}, {"measurement": "receptor occupancy at 1 µM", "setting": "FGFR2", "value": -6.21, "unit": "%"}, {"measurement": "receptor occupancy at 1 µM", "setting": "LRRK2", "value": 7.3, "unit": "%"}, {"measurement": "receptor occupancy at 1 µM", "setting": "MAP4K2", "value": -0.43, "unit": "%"}, {"measurement": "receptor occupancy at 1 µM", "setting": "MAP4K3", "value": -3.75, "unit": "%"}, {"measurement": "receptor occupancy at 1 µM", "setting": "PTK2B", "value": -1.12, "unit": "%"}, {"measurement": "receptor occupancy at 1 µM", "setting": "SIK1", "value": -3.59, "unit": "%"}, {"measurement": "receptor occupancy at 1 µM", "setting": "SRMS [1]", "value": 10.1, "unit": "%"}, {"measurement": "receptor occupancy at 1 µM", "setting": "STK10", "value": -3.32, "unit": "%"}, {"measurement": "receptor occupancy at 1 µM", "setting": "TEC", "value": -0.614, "unit": "%"}, {"measurement": "receptor occupancy at 1 µM", "setting": "TEK", "value": 9.13, "unit": "%"}, {"measurement": "receptor occupancy at 1 µM", "setting": "TNK1", "value": -2.13, "unit": "%"}, {"measurement": "receptor occupancy at 1 µM", "setting": "TXK", "value": 4.81, "unit": "%"}, {"measurement": "AUC", "setting": "[2]; 0.1 mg/kg, Mouse PK IV, 0.10 mg/kg, read-out: AUCiv", "value": 0.0947, "unit": "µg·h/mL"}, {"measurement": "concentration at 5 min", "setting": "[2]; 0.1 mg/kg, Mouse PK IV, 0.10 mg/kg, read-out: C5min", "value": 0.0445, "unit": "µg/mL"}, {"measurement": "Cmax", "setting": "[2]; Mouse PK PO, 1.0 mg/kg", "value": 0.0118, "unit": "µg/mL"}, {"measurement": "Tmax", "setting": "[2]; Mouse PK PO, 1.0 mg/kg", "value": 30, "unit": "min"}, {"measurement": "AUC", "setting": "[2]; Mouse PK PO, 1.0 mg/kg, read-out: AUCpo", "value": 0.0309, "unit": "µg·h/mL"}, {"measurement": "bioavailability", "setting": "[2]; mouse, PO 1.0 mg/kg vs IV 0.10 mg/kg", "value": 4, "unit": "%"}, {"measurement": "remaining activity at 1 µM", "setting": "MET(M1250T)", "value": 83, "unit": "%"}, {"measurement": "remaining binding at 1 µM", "setting": "BRSK1", "value": 85, "unit": "%"}, {"measurement": "remaining binding at 1 µM", "setting": "CDK4-cyclinD3", "value": 95, "unit": "%"}, {"measurement": "remaining binding at 1 µM", "setting": "EPHA6", "value": 86, "unit": "%"}, {"measurement": "remaining binding at 1 µM", "setting": "GRK3", "value": 71, "unit": "%"}, {"measurement": "remaining binding at 1 µM", "setting": "GSK3B; 1000 nM", "value": 100, "unit": "%"}, {"measurement": "remaining binding at 0.1 µM", "setting": "GSK3B; compound concentration 100 nM, Entrez GSK3B", "value": 100, "unit": "%"}, {"measurement": "remaining binding at 1 µM", "setting": "KIT-autoinhibited", "value": 97, "unit": "%"}, {"measurement": "remaining binding at 1 µM", "setting": "MAPKAPK2", "value": 64, "unit": "%"}, {"measurement": "remaining binding at 1 µM", "setting": "MEK5", "value": 82, "unit": "%"}, {"measurement": "remaining binding at 1 µM", "setting": "MST2", "value": 80, "unit": "%"}, {"measurement": "remaining binding at 0.1 µM", "setting": "SRMS [3]", "value": 90, "unit": "%"}, {"measurement": "remaining activity at 1 µM", "setting": "RET(V804M)", "value": 93, "unit": "%"}, {"measurement": "remaining activity at 1 µM", "setting": "FLT3(K663Q)", "value": 100, "unit": "%"}, {"measurement": "remaining activity at 0.1 µM", "setting": "[4]", "value": 91, "unit": "%"}]}
